Here are results for one compound from BindingDB's records for doi:10.1016/j.bmcl.2010.10.018 (Merck Frosst Centre For Therapeutic Research, 2010).

Molecules are shown by their SMILES.

The assay is described as follows: Antagonist activity at TP receptor in human platelet assessed as thromboxane A2- induced platelet aggregation.

Regarding `C[C@@H](c1ccc(C(F)(F)F)cc1)n1c2c(c3cc(F)cc(S(C)(=O)=O)c31)CCC[C@@H]2CC(=O)O` [2-((R)-6-fluoro-8-(methylsulfonyl)-9-((S)-1-(4-(trifluoromethyl)phenyl)ethyl)-2,3,4,9-tetrahydro-1H-carbazol-1-yl)acetic acid], the IC50 worked out at 19.4 µM.
